Measurements as given in patent publication US20100292231A1, “Indazole Compounds for Treating Inflammatory Disorders, Demyelinating Disorders and Cancers” (priority 2007, published 2010).
Like-named read-outs stand apart in the source and are kept apart here.

Columns and labels:
Mda231 cells = assay: BME cell invasion assay (Boyden chamber principle); format: cell-based; conditions: 24 hours
Protocol: Representative compounds were tested for their ability to inhibit invasion of Mda231 cells. Invasive cells are a mark of metastatic tumors. The in vitro invasion assay is based on the Boyden chamber assay principle.
The 96-well BME cell invasion assay kit was used according to the manufacturers' protocol (Culturex™ catalog number: 3455-096-K). Prior to assay cells were serum starved for 18 hrs and the membrane of the top invasion chamber was coated with 50 μl of 0.83× BME solution and incubated overnight at 37° C./5% CO2. The next day cells were harvested and 40.000 cells/well in 50 μl medium without serum were plated to top chamber. 150 μl of medium with serum was added to bottom chamber. Compounds were added and cells were incubated for 24 hrs at 37° C./5% CO2. The remaining cells were assayed for standard curve.
After 24 hours, the bottom chamber was aspirated and washed twice with 200 μl wash buffer. The bottom chamber was transferred to a black assay plate. Cells migrated through the membrane are stained with Calcein-AM and measured with fluorescence spectrophotometry; 150 μl Calcein-AM/Cell dissociation solution was added and incubated at 37° C./5% CO2. After 1 hour, the plate was read at 485 nm excitation, 520 nm emission. Using standard curve, the fluorescence signal measured was converted to cell number and percent invasion was determined.

EGFR (ErbB1) = target: T1, EGFR (ErbB1) (Homo sapiens, UniProt P00533); assay: SelectScreen kinase specificity survey; format: biochemical; conditions: estimated, abridged dose response curve, read-out: Kinase inhibitory activity EC50
T1 construct: purchased Invitrogen (SelectScreen service)
Protocol: (§1) Testing of the compounds described in this invention was carried out using the SelectScreen™ platform from Invitrogen, Inc. (Carlsbad. Calif., USA) and the details of its performance are readily viewed via the web by linking to: http://www.invitrogen.com/downloads/SelectScrn_Brochure.pdf.
(§2) Briefly, the approach is based on treating each specific kinase with a unique substrate and optical reporter system in the presence of ATP at 100 micromolar. In controls, the substrate is phosphorylated and a baseline optimal response is recorded.
(§3) The compounds were then re-tested by adding graded amounts of putative inhibitor which were added in 5 separate increments to generate a dose response curve. The latter is obtained by fitting to a 4 parameter Hill equation, a sigmoid saturation equation.
(§4) The same assay system described in Example 2 can be applied in the determination of kinase specificity. It is well understood by medicinal chemists in the development of kinase inhibitors that the resulting molecules often lack specificity. Not only are homologous kinases inhibited by the same class of compounds, but also non-homologous kinases can be affected by allosteric, induced, activated vs inactivated conformation, and protein folding interactions with the putative inhibitor, which otherwise had been designed to be specific. These off target effects are difficult to predict and can only be ruled in or out by empirically surveying a large set of kinases. It is also understood that changes to scaffolds and variation in their chemical decorations may influence the extent of promiscuity in the patterns of kinase inhibition across kinase classes.
(§5) The following experiment was conducted to address this issue. The indazole compound (IV), described in Example 2 and representative of the new genus was tested along with Symadex against a panel of 230 kinases representative of all known kinases classes. Included in the survey were the Flt3, its mutant, and close relatives in the Class III receptor tyrosine kinase class, together with serine-threonine kinases and atypical kinases many of which share no homology of active site with Flt3 as shown, for example, in the respective “genecard” for each kinase and available for inspection at on the web at http://www.genecards.org/.
(§6) Table 3 lists the estimated EC50 values from an abridged dose response curve for Symadex (C-1311) and CF-123. The kinases are listed alphabetically by Group and Family.

CDK5/p25 = target: T2, CDK5/p25 (Homo sapiens, UniProt Q00535); assay: SelectScreen kinase specificity survey; format: biochemical; conditions: estimated, abridged dose response curve, read-out: Kinase inhibitory activity EC50
T2 construct: purchased Invitrogen (SelectScreen platform)
T2 sequence (Q00535 whole entry): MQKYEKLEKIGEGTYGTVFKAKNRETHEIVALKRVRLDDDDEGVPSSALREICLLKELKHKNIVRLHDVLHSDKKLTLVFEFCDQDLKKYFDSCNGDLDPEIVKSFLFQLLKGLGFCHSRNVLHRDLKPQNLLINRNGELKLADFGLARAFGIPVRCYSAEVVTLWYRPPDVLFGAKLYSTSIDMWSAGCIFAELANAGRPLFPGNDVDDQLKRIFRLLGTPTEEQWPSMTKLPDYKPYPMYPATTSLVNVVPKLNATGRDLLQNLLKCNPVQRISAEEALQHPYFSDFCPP
T2 sequence (Q15078 99-307 partner limits assumed): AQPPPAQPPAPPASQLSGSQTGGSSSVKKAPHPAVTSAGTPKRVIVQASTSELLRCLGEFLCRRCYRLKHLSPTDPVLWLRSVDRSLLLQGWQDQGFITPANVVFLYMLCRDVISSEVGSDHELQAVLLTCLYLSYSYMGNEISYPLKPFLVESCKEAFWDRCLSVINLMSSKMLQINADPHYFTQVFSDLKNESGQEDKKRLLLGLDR
Protocol: as §1, §2, §3, §4, §5, §6

PIM2 = target: T3, PIM2 (Homo sapiens, UniProt Q9P1W9); assay: SelectScreen kinase specificity survey; format: biochemical; conditions: estimated, abridged dose response curve, read-out: Kinase inhibitory activity EC50
T3 construct: purchased Invitrogen, Inc. (SelectScreen platform)
T3 sequence (Q9P1W9 whole entry): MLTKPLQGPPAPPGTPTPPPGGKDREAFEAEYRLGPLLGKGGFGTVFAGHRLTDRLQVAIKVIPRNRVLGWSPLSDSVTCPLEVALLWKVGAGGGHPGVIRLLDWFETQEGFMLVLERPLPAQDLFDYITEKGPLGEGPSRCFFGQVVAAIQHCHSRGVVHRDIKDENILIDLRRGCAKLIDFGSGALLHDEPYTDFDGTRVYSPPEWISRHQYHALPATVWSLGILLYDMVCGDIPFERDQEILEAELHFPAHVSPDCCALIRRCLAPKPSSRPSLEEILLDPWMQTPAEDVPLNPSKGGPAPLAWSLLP
Protocol: as §1, §2, §3, §4, §5, §6

CAMK4 (CaMKIV) = target: T4, CAMK4 (CaMKIV) (Homo sapiens, UniProt Q16566); assay: SelectScreen kinase specificity survey; format: biochemical; conditions: estimated, abridged dose response curve, read-out: Kinase inhibitory activity EC50
T4 construct: purchased Invitrogen, Inc. (SelectScreen platform)
Protocol: as §1, §2, §3, §4, §5, §6

PRKG1 (PKG1) = target: T5, PRKG1 (PKG1) (Homo sapiens, UniProt Q13976); assay: SelectScreen kinase specificity survey; format: biochemical; conditions: estimated, abridged dose response curve, read-out: Kinase inhibitory activity EC50
T5 construct: purchased Invitrogen, Inc. (SelectScreen platform)
T5 sequence (Q13976 whole entry): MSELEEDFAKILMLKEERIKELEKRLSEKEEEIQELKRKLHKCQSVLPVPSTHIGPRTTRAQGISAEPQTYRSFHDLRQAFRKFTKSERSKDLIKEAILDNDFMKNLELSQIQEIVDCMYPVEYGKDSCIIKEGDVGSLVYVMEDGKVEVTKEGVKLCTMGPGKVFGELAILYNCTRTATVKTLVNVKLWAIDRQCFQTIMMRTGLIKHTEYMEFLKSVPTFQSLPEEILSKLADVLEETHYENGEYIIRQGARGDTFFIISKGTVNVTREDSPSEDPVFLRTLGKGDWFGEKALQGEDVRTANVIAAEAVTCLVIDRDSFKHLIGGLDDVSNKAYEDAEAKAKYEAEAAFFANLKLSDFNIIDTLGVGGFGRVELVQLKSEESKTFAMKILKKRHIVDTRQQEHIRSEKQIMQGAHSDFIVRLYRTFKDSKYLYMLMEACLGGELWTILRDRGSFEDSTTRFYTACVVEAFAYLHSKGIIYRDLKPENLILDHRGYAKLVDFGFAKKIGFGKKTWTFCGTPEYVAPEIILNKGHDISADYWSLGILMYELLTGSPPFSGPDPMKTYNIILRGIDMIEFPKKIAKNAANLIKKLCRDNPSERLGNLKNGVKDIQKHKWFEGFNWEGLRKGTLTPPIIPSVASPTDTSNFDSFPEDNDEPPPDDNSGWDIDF
Protocol: as §1, §2, §3, §4, §5, §6

STK24 (MST3) = target: T6, STK24 (MST3) (Homo sapiens, UniProt Q9Y6E0); assay: SelectScreen kinase specificity survey; format: biochemical; conditions: estimated, abridged dose response curve, read-out: Kinase inhibitory activity EC50
T6 construct: purchased Invitrogen (SelectScreen platform)
Protocol: as §1, §2, §3, §4, §5, §6

CAMK2B (CaMKII beta) = target: T7, CAMK2B (CaMKII beta) (Homo sapiens, UniProt Q13554); assay: SelectScreen kinase specificity survey; format: biochemical; conditions: estimated, abridged dose response curve, read-out: Kinase inhibitory activity EC50
T7 construct: purchased Invitrogen, Inc. (SelectScreen platform)
Protocol: as §1, §2, §3, §4, §5, §6

RAF1 (cRAF) Y340D Y341D = target: T8, RAF1 (cRAF) Y340D Y341D (Homo sapiens, UniProt P04049, Y340D/Y341D); assay: SelectScreen kinase specificity survey; format: biochemical; conditions: estimated, abridged dose response curve, read-out: Kinase inhibitory activity EC50
T8 construct: purchased Invitrogen, Inc. (SelectScreen platform)
T8 sequence (P04049 whole entry Y340D/Y341D): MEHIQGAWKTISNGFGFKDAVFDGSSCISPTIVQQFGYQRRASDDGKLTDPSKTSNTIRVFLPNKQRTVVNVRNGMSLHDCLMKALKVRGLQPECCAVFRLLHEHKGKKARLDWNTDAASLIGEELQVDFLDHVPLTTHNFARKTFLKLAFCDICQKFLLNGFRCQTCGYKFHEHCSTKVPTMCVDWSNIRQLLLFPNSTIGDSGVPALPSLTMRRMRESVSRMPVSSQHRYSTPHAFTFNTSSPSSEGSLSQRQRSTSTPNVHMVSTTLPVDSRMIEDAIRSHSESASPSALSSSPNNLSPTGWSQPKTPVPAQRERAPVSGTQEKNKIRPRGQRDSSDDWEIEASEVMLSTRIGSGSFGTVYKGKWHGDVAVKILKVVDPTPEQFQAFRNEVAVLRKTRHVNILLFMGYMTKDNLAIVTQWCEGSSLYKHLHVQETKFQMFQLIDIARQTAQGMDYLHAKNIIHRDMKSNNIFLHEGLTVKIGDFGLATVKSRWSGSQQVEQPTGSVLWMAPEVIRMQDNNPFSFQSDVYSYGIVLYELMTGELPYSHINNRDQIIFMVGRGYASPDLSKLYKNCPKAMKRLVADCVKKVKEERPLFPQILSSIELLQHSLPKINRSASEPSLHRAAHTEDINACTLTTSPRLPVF
Protocol: as §1, §2, §3, §4, §5, §6

BTK = target: T9, BTK (Homo sapiens, UniProt Q06187); assay: SelectScreen kinase specificity survey; format: biochemical; conditions: estimated, abridged dose response curve, read-out: Kinase inhibitory activity EC50
T9 construct: purchased Invitrogen (SelectScreen)
Protocol: as §1, §2, §3, §4, §5, §6

ERBB4 (HER4) = target: T10, ERBB4 (HER4) (Homo sapiens, UniProt Q15303); assay: SelectScreen kinase specificity survey; format: biochemical; conditions: estimated, abridged dose response curve, read-out: Kinase inhibitory activity EC50
T10 construct: purchased Invitrogen (SelectScreen service)
Protocol: as §1, §2, §3, §4, §5, §6

GRK6 = target: T11, GRK6 (Homo sapiens, UniProt P43250); assay: SelectScreen kinase specificity survey; format: biochemical
T11 construct: purchased Invitrogen (SelectScreen platform)
T11 sequence (P43250 whole entry): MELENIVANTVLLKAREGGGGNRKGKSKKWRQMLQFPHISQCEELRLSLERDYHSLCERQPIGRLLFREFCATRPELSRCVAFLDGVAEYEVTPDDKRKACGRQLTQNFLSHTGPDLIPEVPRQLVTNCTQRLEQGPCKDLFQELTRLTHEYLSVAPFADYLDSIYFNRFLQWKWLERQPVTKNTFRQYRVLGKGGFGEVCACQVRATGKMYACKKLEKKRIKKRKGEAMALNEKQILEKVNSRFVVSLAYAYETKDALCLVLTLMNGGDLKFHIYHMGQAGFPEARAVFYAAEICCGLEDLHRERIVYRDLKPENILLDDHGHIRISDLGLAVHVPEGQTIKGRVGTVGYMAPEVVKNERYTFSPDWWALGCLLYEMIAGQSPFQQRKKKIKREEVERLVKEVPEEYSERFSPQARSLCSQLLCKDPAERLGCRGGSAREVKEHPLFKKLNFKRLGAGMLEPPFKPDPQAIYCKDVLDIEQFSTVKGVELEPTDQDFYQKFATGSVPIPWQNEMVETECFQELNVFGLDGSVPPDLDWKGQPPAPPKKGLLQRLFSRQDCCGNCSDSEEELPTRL
Protocol: as §1, §2, §3, §4, §5, §6

KIT T670I = target: T12, KIT T670I (Homo sapiens, UniProt P10721, T670I); assay: SelectScreen kinase specificity survey; format: biochemical; conditions: estimated, abridged dose response curve, read-out: Kinase inhibitory activity EC50
T12 construct: purchased Invitrogen (SelectScreen platform)
Protocol: as §1, §2, §3, §4, §5, §6

FLT4 (VEGFR3) = target: T13, FLT4 (VEGFR3) (Homo sapiens, UniProt P35916); assay: SelectScreen kinase specificity survey; format: biochemical; conditions: estimated, abridged dose response curve, read-out: Kinase inhibitory activity EC50
T13 construct: purchased Invitrogen, Inc. (SelectScreen platform)
Protocol: as §1, §2, §3, §4, §5, §6

MAPK12 (p38 gamma) = target: T14, MAPK12 (p38 gamma) (Homo sapiens, UniProt P53778); assay: SelectScreen kinase specificity survey; format: biochemical; conditions: estimated, abridged dose response curve, read-out: Kinase inhibitory activity EC50
T14 construct: purchased Invitrogen (SelectScreen platform)
T14 sequence (P53778 whole entry): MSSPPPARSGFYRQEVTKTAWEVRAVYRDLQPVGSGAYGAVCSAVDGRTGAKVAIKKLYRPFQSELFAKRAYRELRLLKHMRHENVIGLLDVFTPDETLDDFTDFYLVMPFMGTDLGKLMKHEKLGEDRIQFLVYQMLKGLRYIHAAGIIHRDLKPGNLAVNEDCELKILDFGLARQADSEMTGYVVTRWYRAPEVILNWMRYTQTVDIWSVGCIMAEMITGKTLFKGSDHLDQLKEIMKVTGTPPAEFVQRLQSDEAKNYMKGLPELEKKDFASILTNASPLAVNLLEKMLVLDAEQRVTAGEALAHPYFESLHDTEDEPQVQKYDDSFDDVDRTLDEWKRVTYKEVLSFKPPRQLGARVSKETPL
Protocol: as §1, §2, §3, §4, §5, §6

FGFR2 = target: T15, FGFR2 (Homo sapiens, UniProt P21802); assay: SelectScreen kinase specificity survey; format: biochemical; conditions: estimated, abridged dose response curve, read-out: Kinase inhibitory activity EC50
T15 construct: purchased Invitrogen (SelectScreen platform)
T15 sequence (P21802 22-821): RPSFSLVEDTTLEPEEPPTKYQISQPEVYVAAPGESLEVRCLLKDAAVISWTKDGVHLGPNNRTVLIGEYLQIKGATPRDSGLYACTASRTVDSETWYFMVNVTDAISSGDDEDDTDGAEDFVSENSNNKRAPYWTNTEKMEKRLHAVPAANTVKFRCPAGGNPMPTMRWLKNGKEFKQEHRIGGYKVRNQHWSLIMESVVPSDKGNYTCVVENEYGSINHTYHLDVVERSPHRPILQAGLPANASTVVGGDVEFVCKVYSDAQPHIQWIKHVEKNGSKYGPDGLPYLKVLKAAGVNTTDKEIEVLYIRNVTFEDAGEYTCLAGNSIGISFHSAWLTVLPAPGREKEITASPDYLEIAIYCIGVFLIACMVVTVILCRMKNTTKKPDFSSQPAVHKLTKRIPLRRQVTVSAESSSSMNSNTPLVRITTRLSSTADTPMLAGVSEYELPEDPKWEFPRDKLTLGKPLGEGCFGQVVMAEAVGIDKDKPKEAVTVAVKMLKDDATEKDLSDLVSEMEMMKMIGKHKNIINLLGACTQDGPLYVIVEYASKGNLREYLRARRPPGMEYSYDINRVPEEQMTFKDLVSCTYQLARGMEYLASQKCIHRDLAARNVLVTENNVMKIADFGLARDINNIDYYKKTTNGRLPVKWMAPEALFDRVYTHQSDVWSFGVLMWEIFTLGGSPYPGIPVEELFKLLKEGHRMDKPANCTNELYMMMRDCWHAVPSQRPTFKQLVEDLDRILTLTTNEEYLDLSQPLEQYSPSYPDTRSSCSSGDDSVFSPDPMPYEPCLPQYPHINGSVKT
Protocol: as §1, §2, §3, §4, §5, §6

PRKCB2 (PKC beta II) = target: T16, PRKCB2 (PKC beta II) (Homo sapiens, UniProt P05771); assay: SelectScreen kinase specificity survey; format: biochemical; conditions: estimated, abridged dose response curve, read-out: Kinase inhibitory activity EC50
T16 construct: purchased Invitrogen (SelectScreen platform)
Protocol: as §1, §2, §3, §4, §5, §6

FGFR4 = target: T17, FGFR4 (Homo sapiens, UniProt P22455); assay: SelectScreen kinase specificity survey; format: biochemical; conditions: estimated, abridged dose response curve, read-out: Kinase inhibitory activity EC50
T17 construct: purchased Invitrogen (SelectScreen platform)
Protocol: as §1, §2, §3, §4, §5, §6

GRK7 = target: T18, GRK7 (Homo sapiens, UniProt Q8WTQ7); assay: SelectScreen kinase specificity survey; format: biochemical
T18 construct: purchased Invitrogen (SelectScreen platform)
T18 sequence (Q8WTQ7 whole entry): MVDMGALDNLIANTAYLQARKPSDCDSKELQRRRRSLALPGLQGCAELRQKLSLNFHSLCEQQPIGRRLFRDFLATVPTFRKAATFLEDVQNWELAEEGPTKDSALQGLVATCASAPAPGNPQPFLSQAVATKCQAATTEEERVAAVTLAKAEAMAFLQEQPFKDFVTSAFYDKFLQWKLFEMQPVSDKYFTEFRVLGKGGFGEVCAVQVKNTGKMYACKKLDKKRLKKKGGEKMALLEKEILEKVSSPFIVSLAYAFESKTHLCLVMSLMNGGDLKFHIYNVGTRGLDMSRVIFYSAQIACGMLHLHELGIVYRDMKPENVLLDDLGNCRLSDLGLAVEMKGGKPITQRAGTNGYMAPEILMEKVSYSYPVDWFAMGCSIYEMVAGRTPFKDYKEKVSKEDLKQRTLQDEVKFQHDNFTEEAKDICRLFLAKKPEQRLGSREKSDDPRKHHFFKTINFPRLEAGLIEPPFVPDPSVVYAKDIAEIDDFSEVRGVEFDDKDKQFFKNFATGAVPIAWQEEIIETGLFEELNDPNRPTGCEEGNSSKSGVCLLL
Protocol: as §1, §2, §3, §4, §5, §6

PIM1 = target: T19, PIM1 (Homo sapiens, UniProt P11309); assay: SelectScreen kinase specificity survey; format: biochemical; conditions: estimated, abridged dose response curve, read-out: Kinase inhibitory activity EC50
T19 construct: purchased Invitrogen, Inc. (SelectScreen platform)
T19 sequence (P11309 whole entry): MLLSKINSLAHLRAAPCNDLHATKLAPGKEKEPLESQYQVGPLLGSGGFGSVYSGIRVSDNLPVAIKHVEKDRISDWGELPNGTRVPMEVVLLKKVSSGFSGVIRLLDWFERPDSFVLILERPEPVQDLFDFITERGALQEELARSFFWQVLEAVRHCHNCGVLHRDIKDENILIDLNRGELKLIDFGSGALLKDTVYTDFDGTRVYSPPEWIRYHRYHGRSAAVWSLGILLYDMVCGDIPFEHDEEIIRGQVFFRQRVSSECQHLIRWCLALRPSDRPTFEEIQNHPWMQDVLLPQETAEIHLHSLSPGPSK
Protocol: as §1, §2, §3, §4, §5, §6

| Compound | inhibition of cell invasion (Mda231 cells) | EC50 (EGFR (ErbB1)) [µM] | EC50 (CDK5/p25) [µM] | EC50 (PIM2) [µM] | EC50 (CAMK4 (CaMKIV)) [µM] | EC50 (PRKG1 (PKG1)) [µM] | EC50 (STK24 (MST3)) [µM] | EC50 (CAMK2B (CaMKII beta)) [µM] | EC50 (RAF1 (cRAF) Y340D Y341D) [µM] | EC50 (BTK) [µM] | EC50 (ERBB4 (HER4)) [µM] | EC50 (KIT T670I) [µM] | EC50 (FLT4 (VEGFR3)) [µM] | EC50 (MAPK12 (p38 gamma)) [µM] | EC50 (FGFR2) [µM] | EC50 (PRKCB2 (PKC beta II)) [µM] | EC50 (FGFR4) [µM] | EC50 (PIM1) [µM] | other results |
| --- | --- | --- | --- | --- | --- | --- | --- | --- | --- | --- | --- | --- | --- | --- | --- | --- | --- | --- | --- |
| CN1CCN(CCCNc2ccc3ncn4c5ccc6[nH]ncc6c5c(=O)c2c34)CC1 [(XVII)] | slightly more effective than Symadex |  |  |  |  |  |  |  |  |  |  |  |  |  |  |  |  |  |  |
| CN(C)CCCNc1ccc2ncn3c4ccc5[nH]ncc5c4c(=O)c1c23 [Compound (IV)] |  | > 5 | 1.58 | > 5 | > 5 | > 5 | 1.04 | > 5 | > 5 | 1.44 | > 5 | > 5 | 1.49 | > 5 | 2.86 | > 5 | > 5 | 3.42 | EC50 (GRK6; GRK6, estimated, abridged dose response curve, read-out: Kinase inhibitory activity EC50): > 5 µM; EC50 (GRK7; GRK7, estimated, abridged dose response curve, read-out: Kinase inhibitory activity EC50): > 5 µM |
| CCN(CC)CCCNc1ccc2ncn3c4ccc5[nH]ncc5c4c(=O)c1c23 [Compound (XV)] | slightly more effective than Symadex |  |  |  |  |  |  |  |  |  |  |  |  |  |  |  |  |  |  |
| CCN(CC)CCNc1ccc2ncn3c4ccc(O)cc4c(=O)c1c23 [Symadex, 5-(2-(diethylamino)ethylamino)-8-hydroxy-6H-imidazo[4,5,1-de]acridin-6-one, reference compound] |  | > 5 | > 5 | > 5 | > 5 | > 5 | 0.733 | > 5 | > 5 | 3.02 | > 5 | > 5 | 3.96 | > 5 | 4.5 | > 5 | > 5 | 0.959 | EC50 (GRK6): > 5 µM; EC50 (GRK7): > 5 µM |
